The target in the test is AChE (Homo sapiens, UniProt P22303). The test can be described thus: In vitro AChE inhibitory activity, Ellman's colorimetric method. Format: biochemical. Particulars: for relative potency (%): AChE inhibitory potency relative to donepezil hydrochloride (100). (In Ellman's method for cholinesterases, released thiocholine reacts with DTNB.)
The mark [1] stands for this setting: in vitro AChE inhibition, mean ± standard error of the mean of three experiments.

Structures are written as SMILES. Like-named read-outs stand apart in the source and are kept apart here.

Broadly, the IC50 is the midpoint of a concentration-inhibition curve. High values mean a need for much substance, low ones inhibition by little substance.

Chain of AChE (P22303 32-614): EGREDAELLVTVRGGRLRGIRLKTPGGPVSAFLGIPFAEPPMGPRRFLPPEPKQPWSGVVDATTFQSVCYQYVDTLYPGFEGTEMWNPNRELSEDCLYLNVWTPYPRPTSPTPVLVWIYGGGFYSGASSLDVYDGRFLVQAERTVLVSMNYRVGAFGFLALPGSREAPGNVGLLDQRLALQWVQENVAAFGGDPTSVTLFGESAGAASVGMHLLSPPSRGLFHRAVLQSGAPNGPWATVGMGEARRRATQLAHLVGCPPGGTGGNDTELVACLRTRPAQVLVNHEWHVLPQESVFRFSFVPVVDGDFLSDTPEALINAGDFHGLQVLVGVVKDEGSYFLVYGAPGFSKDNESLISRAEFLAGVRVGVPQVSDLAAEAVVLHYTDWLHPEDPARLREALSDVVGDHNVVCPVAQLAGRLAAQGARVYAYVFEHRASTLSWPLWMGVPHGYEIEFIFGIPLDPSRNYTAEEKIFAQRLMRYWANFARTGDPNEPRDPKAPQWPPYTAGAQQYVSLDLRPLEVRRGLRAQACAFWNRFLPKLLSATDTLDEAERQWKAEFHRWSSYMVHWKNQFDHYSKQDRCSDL

The compound `Cc1ccc(C=C2SC(Nc3nc(-c4ccc(C)cc4)cs3)=NC2=O)cc1` [Compound 8, 2-[4-(p-Tolylthiazol-2-yl)amino]-5-(4-methylbenzylidene)-4,5-dihydrothiazole-4-one] gave an IC50 under setting [1] of 501 ± 14 nM.

In the case of `Cc1ccc(-c2csc(NC3=NC(=O)C(=Cc4ccc(Cl)cc4Cl)S3)n2)cc1` [Compound 12, 2-[4-(p-Tolylthiazol-2-yl)amino]-5-(2,4-dichlorobenzylidene)-4,5-dihydrothiazole-4-one], under setting [1], the half-maximal inhibitory concentration (IC50) is 336 ± 9.1 nM.

In turn, `Cc1ccc(-c2csc(NC3=NC(=O)C(=Cc4ccc(Br)s4)S3)n2)cc1` [Compound 14, 2-[4-(p-Tolylthiazol-2-yl)amino]-5-[(5-bromothiophen-2-yl)methylene]-4,5-dihydrothiazole-4-one] came in with an IC50 under setting [1] of 380 ± 10 nM.

Take `COc1ccc(-c2csc(NC3=NC(=O)C(=Cc4ccc(C)cc4)S3)n2)cc1` [Compound 15, 2-[4-(4-Methoxyphenylthiazol-2-yl)amino]-5-(4-methylbenzylidene)-4,5-dihydrothiazole-4-one]: half-maximal inhibition under setting [1] (IC50) was put at 375 ± 10 nM.

Consider `COc1ccc(-c2csc(NC3=NC(=O)C(=Cc4ccc(OC)c(OC)c4)S3)n2)cc1` [Compound 17, 2-[4-(4-Methoxyphenylthiazol-2-yl)amino]-5-(3,4-dimethoxybenzylidene)-4,5-dihydrothiazole-4-one], for which the “relative potency (%)” value was 31.26%. Under setting [1], this compound displayed an IC50 of 176 ± 4.8 nM.

Consider `COc1ccc(-c2csc(NC3=NC(=O)C(=Cc4ccc(Cl)cc4)S3)n2)cc1` [Compound 18, 2-[4-(4-Methoxyphenylthiazol-2-yl)amino]-5-(4-chlorobenzylidene)-4,5-dihydrothiazole-4-one], for which the “relative potency (%)” value is 28.43%. In addition, under setting [1], it took 193 ± 5.3 nM to reach half-maximal inhibition (IC50).

In turn, `COc1ccc(-c2csc(NC3=NC(=O)C(=Cc4ccc(Cl)cc4Cl)S3)n2)cc1` [Compound 19, 2-[4-(4-Methoxyphenylthiazol-2-yl)amino]-5-(2,4-dichlorobenzylidene)-4,5-dihydrothiazole-4-one] came in with an IC50 under setting [1] of 731 ± 20 nM.

Take `COc1ccc(-c2csc(NC3=NC(=O)C(=Cc4cccs4)S3)n2)cc1` [Compound 20, 2-[4-(4-Methoxyphenylthiazol-2-yl)amino]-5-[(thiophen-2-yl)methylene]-4,5-dihydrothiazole-4-one]: under setting [1], the IC50 worked out at 260 ± 7.1 nM.

For the compound `COc1ccc(-c2csc(NC3=NC(=O)C(=Cc4ccc(Br)s4)S3)n2)cc1` [Compound 21, 2-[4-(4-Methoxyphenylthiazol-2-yl)amino]-5-[(5-bromothiophen-2-yl)methylene]-4,5-dihydrothiazole-4-one], the “relative potency (%)” value turned out to be 29.28%. In addition, under setting [1], inhibition was half-maximal at 188 ± 5.1 nM (IC50).

Turning to `CCN=C1SCC(=O)N1c1nc(-c2ccc(C)cc2)cs1` [Compound 28, 2-Ethylimino-3-[4-(p-tolyl)thiazol-2-yl]thiazolidin-4-one], the half-maximal inhibitory concentration (IC50) was 478 ± 13 nM.

Regarding `Cc1ccc(-c2csc(N3C(=O)CSC3=NCc3ccccc3)n2)cc1` [Compound 29, 2-Benzylimino-3-[4-(p-tolyl)thiazol-2-yl]thiazolidin-4-one], it took 188 ± 5.1 nM to reach half-maximal inhibition (IC50).

Regarding `CCN=C1SCC(=O)N1c1nc(-c2ccc(OC)cc2)cs1` [Compound 30, 2-Ethylimino-3-[4-(4-methoxyphenyl)thiazol-2-yl]thiazolidin-4-one], the midpoint of inhibition, the IC50, lay at 346 ± 9.4 nM.

Consider `COc1ccc(-c2csc(N3C(=O)CSC3=NCc3ccccc3)n2)cc1` [Compound 31, 2-Benzylimino-3-[4-(4-methoxyphenyl)thiazol-2-yl]thiazolidin-4-one], for which the IC50 was determined as 152 ± 4.1 nM and the “relative potency (%)” value was 36.08%.

Regarding `COc1ccc(-c2csc(N3C(=O)C(=Cc4ccc(OC)c(OC)c4)SC3=NCc3ccccc3)n2)cc1` [Compound 32, 2-(Benzylimino)-5-(3,4-dimethoxybenzylidene)-3-[4-(4-methoxyphenyl)thiazol-2-yl]thiazolidin-4-one], 450 ± 12 nM corresponded to half-maximal inhibition (IC50).

`COc1ccc(-c2csc(N3C(=O)C(=Cc4ccc(Cl)cc4Cl)SC3=NCc3ccccc3)n2)cc1` [Compound 33, 2-(Benzylimino)-5-(2,4-dichlorobenzylidene)-3-[4-(4-methoxyphenyl)thiazol-2-yl]thiazolidin-4-one]: the IC50 came to 188 ± 5.1 nM and the “relative potency (%)” value is listed as 29.27%.

These data come from publication PMC8320107 (ACS Omega, 2021).
